In patent US4882331A, “1-[(1,1-diphenyl)-1-alkenyl]piperazine derivatives, method of preparation and pharmaceutical compositions in which they are present” (priority 1987, dated 1989):

What was measured:
[1] = test system: mouse muscle-relaxing action; experiment: Muscle-relaxing action (traction test); type: in vivo; conditions: IP, doses in mg.kg^-1
Excerpt: 3. Muscle-relaxing action (traction test)
This test assesses the presence or absence of redressments in a mouse brought up to a horizontal wire with its front paws.
The number of mice which are unable to grip the wire with one of their back paws within 5 s is noted.
A 50% effective dose can be calculated from the results obtained.

[2] = test system: head twitches induced by 5-MeODMT; experiment: Head twitches caused by 5-methoxydimethyltryptamine (5-MeODMT); type: in vivo; conditions: Mus musculus; male mice; IP; 5-MeODMT 4 mg/kg; read-out: Antagonism of the head twitches induced by 5-MeODMT: decrease as from dose
Method: 2. Head twitches caused by 5-methoxydimethyltryptamine (5-MeODMT)
(§1) Animals: male mice of 25±1 g
At time T-3 hours, 100 mg/kg of pargyline were injected intraperitoneally.
(§2) At time T-30 minutes, the test product or distilled water (control) was injected intraperitoneally.
At time T=O, 5-MeODMT was injected intraperitoneally at a dose of 4 mg/kg.
The number of head twitches was observed.
(§3) The mean number of movements was calculated and compared with the control group.

[3] = test system: antiserotoninergic activity; experiment: Antiserotoninergic activity tests, overall result; type: in vivo, mice, rats; conditions: overall statement on Table IV
Excerpt: The compound of Example 1 was furthermore tested for its antiserotoninergic activity according to the following tests: […]

[4] = test system: yohimbine toxicity; experiment: Yohimbine test (yohimbine toxicity); type: in vivo; conditions: 24 h; mouse; IP; yohimbine 25 mg/kg IP
Method: The test derivative is administered 30 min before the injection of yohimbine (25 mg/kg IP).
The number of deaths is counted 24 h after the injection of yohimbine.

[5] = test system: penile erections and yawning; experiment: Penile erections caused by apomorphine; type: in vivo; conditions: Rattus norvegicus; rats; IP; apomorphine 0.20 mg/kg; read-out: Antagonism of the penile erections and yawning: antagonism as from dose
Method: 3. Penile erections caused by apomorphine
The test product was administered parenterally or orally to rats, placed in a transparent cage, 30 minutes before the intraperitoneal injection of 0.20 mg/kg of apomorphine.
The number of penile erections was recorded over the 30 minutes following the injection of apomorphine.
A statistical study was carried out by comparison with the numbers of erections in the control rats.

[6] = test system: mice; experiment: Determination of the 50% lethal dose (LD50) in mice; conditions: mice, IP
Method: (§4) The toxicity of the compounds of the invention was determined by the following test:
(§5) Determination of the 50% lethal dose (LD50) in mice
(§6) The test product was administered intraperitoneally to groups of 5 male mice and 5 female mice at a rate of 0.1 ml per 10 g of body weight.

[7] = in vivo; conditions: mouse, in vivo, ip
Method: as §4, §5, §6

[8] = test system: hyperthermia and clinical signs after tranylcypromine and tryptophan; experiment: Grahame Smith's test; type: in vivo; conditions: rats; PO
Method: Animals: male rats of 200±10 g
At time T-30 minutes, the test product was administered intraperitoneally.
At time T=O, an MAOI was administered intraperitoneally (tranylcypromine, 20 mg/kg).
At time T+20 minutes, 250 mg/kg of tryptophan were administered (IP).
The temperature of the rats was recorded every 30 minutes for 200 minutes and the various clinical signs (motor agitation--hypersalivation--catatonia of the tail--hyperesthesia--thrashing of the tail, etc.) were noted on a scale of 0 to 1.
The mean temperatures and the average symptoms observed were calculated by comparison with the controls.

[9] = test system: pain syndrome caused by phenylbenzoquinone (PBQ); experiment: Peripheral analgesic activity (phenylbenzoquinone); type: in vivo; conditions: mouse; IP
Method: 5. Peripheral analgesic activity
A peritoneal pain is caused in mice by the intraperitoneal injection of phenylbenzoquinone (PBQ).
The test assesses the decrease in the pain syndrome, characterized by an abdominal twisting movement, which is caused by injecting the test derivative 30 min before the administration of PBQ.
The 50% effective dose is calculated from the percentage decrease in the pain syndrome relative to the control animals.

[10] = test system: central nervous system; experiment: Pharmacological tests on the central nervous system, overall result; type: in vivo, mouse, rat; conditions: overall statement on Table III
Method: The pharmacological properties of the compounds of the invention were determined using the following tests: Experimental protocols The results obtained are collated in Table III below. […]

[11] = test system: head twitches induced by 5-HTP; experiment: Head twitches caused by 5-hydroxytryptophane (5-HTP); type: in vivo; conditions: Mus musculus; male mice; IP; 5-HTP 4 mg/kg; read-out: Antagonism of the head twitches induced by 5-HTP: decrease as from dose
Method: 1. Head twitches caused by 5-hydroxytryptophane (5-HTP)
as §1
At time T-3 h, 100 mg/kg of pargyline were injected intraperitoneally.
as §2
At time T=O, 5-HTP was injected intraperitoneally at a dose of 4 mg/kg.
All the jerky head movements made by the mice were observed over a 1-minute period every twelve minutes.
as §3

[12] = test system: motor activity of mice; experiment: Study of the spontaneous motility (photoelectric actimeter); type: in vivo; conditions: mouse, IP; for Activity (spontaneous motility): doses in mg.kg^-1
Method: 1. Study of the spontaneous motility
The motor activity of mice was determined using a Boissier and Simon photoelectric actimeter.
The mice are placed in groups of five in a box closed with a lid, through which two perpendicular rays of light pass; the mice cut across these rays as they move.
These movements are counted by a meter, which is read 30 min and 1 h after the administration of the test derivative.

| Compound | ED50 [4] | FIDUCIAL LIMITS of LD50, CALCULATION ACCORDING TO LITCHFIELD and WILCOXON [6] | LD50 [7] | ED50 [9] | other results |
| --- | --- | --- | --- | --- | --- |
| O=C(O)CCCCCCNC1c2ccccc2CCc2ccccc21 [AMINEPTINE] |  |  |  |  | Muscle-relaxing action, traction test [1]: No action |
| Fc1ccc(OCCN2CCN(CCC=C(c3ccccc3)c3ccccc3)CC2)cc1 [Compound 1, 1-[(1,1-diphenyl)-1-buten-4-yl]-4-[1-(2-(4-fluorophenoxy)ethyl]piperazine dimethanesulfonate] | 31 mg/kg | 195 to 274 mg/kg | 231 mg/kg | 1.5 mg/kg | minimal effective dose [2]: ≥ 6.25 mg/kg; antiserotoninergic activity [3]: possesses an antiserotoninergic activity; minimal effective dose [5]: ≥ 6.25 mg/kg; Grahame Smith's test: decrease at dose [8]: 37.5 mg/kg; antidepressant / central nervous system activity [10]: antidepressants with a greater activity than the known antidepressants; minimal effective dose [11]: ≥ 18.8 mg/kg |
| Cc1ccccc1OC(CCN1CCN(CCC=C(c2ccccc2)c2ccccc2)CC1)c1ccccc1 (stereo not drawn) [Compound 4] |  | 279 to 453 mg/kg | 386 mg/kg | 1.5 mg/kg | Activity (spontaneous motility) [12]: Increase |
| Fc1ccc(OC(CCN2CCN(CCC=C(c3ccccc3)c3ccccc3)CC2)c2ccccc2)cc1 (stereo not drawn) [Compound 5] |  | 234 to 421 mg/kg | 314 mg/kg |  |  |
| Fc1ccc(OCCCN2CCN(CCC=C(c3ccccc3)c3ccccc3)CC2)cc1 [Compound 6] | 25 mg/kg | 206 to 296 mg/kg | 247 mg/kg |  |  |
| O=C(CCCN1CCN(CCC=C(c2ccccc2)c2ccccc2)CC1)c1ccc(F)cc1 [Compound 7] | > 25 mg/kg |  |  |  | ED50 [12]: 7.5 mg/kg |
| Fc1ccc(OCCCCN2CCN(CCC=C(c3ccccc3)c3ccccc3)CC2)cc1 [Compound 8] | > 25 mg/kg | 172 to 229 mg/kg | 199 mg/kg | 6.25 mg/kg |  |
| Cc1ccc(OCCCCN2CCN(CCC=C(c3ccccc3)c3ccccc3)CC2)cc1 [Compound 14] | > 25 mg/kg |  |  | 2.5 mg/kg | Activity (spontaneous motility) [12]: Decrease |
| Fc1ccc(OCCN2CCN(CCCC=C(c3ccccc3)c3ccccc3)CC2)cc1 [Compound 16] |  |  |  | 4.5 mg/kg |  |
| Fc1ccc(OCCN2CCN(CCC=C(c3ccccc3)c3ccc(F)cc3)CC2)cc1 [Compound 17] | > 25 mg/kg |  |  | 5.2 mg/kg |  |
| CN(C)CCCN1c2ccccc2CCc2ccccc21 [IMIPRAMINE] |  |  |  |  | Muscle-relaxing action, traction test [1]: No action |
